From ChEMBL document CHEMBL5030530, “Design, synthesis, and cholinesterase inhibition assay of liquiritigenin derivatives as anti-Alzheimer's activity” (Bioorg Med Chem Lett, 2021)
Calls of active or inactive are those of the source. The calls are words filed in the database; no cut-off is given here.

Key:
Cholinesterase = Cholinesterase (Equus caballus, UniProt P81908); experiment: Inhibition of equine serum BuChE using butyrylthiocholine chloride as substrate incubated for 15 to 20 mins by Ellman's method; type: cell-free
[1] = Selectivity index, ratio of IC50 for equine serum BuChE using butyrylthiocholine chloride as substrate to IC50 for electric eel AChE using acetylthiocholine iodide as substrate incubated for 15 to 20 mins by Ellman's method; settings: time 15-20 min
[2] = Antioxidant activity assessed as ABTS radical scavenging activity; type: functional
Acetylcholinesterase = Acetylcholinesterase (Electrophorus electricus, UniProt O42275); experiment: Inhibition of electric eel AChE using acetylthiocholine iodide as substrate incubated for 15 to 20 mins by Ellman's method
HepG2 = experiment: Cytotoxicity against human HepG2 cells assessed as reduction in cell viability; type: ADME, cell-based
[3] = molecular target: Acetylcholinesterase (Electrophorus electricus) (UniProt O42275); experiment: Mixed type inhibition of electric eel AChE assessed as decrease in Vmax at 3.2 to 12.8 uM using varying levels of acetylthiocholine iodide as substrate by Lineweaver-Burk plot analysis; settings: dose 3.2-12.8 µM
[4] = molecular target: Acetylcholinesterase (Electrophorus electricus) (UniProt O42275); experiment: Mixed type inhibition of electric eel AChE assessed as increase in Km at 3.2 to 12.8 uM using varying levels of acetylthiocholine iodide as substrate by Lineweaver-Burk plot analysis; settings: dose 3.2-12.8 µM
[5] = Cytotoxicity against human PBMC assessed as reduction in cell viability; type: ADME, tissue-based

Cholinesterase, sequence (P81908 whole entry): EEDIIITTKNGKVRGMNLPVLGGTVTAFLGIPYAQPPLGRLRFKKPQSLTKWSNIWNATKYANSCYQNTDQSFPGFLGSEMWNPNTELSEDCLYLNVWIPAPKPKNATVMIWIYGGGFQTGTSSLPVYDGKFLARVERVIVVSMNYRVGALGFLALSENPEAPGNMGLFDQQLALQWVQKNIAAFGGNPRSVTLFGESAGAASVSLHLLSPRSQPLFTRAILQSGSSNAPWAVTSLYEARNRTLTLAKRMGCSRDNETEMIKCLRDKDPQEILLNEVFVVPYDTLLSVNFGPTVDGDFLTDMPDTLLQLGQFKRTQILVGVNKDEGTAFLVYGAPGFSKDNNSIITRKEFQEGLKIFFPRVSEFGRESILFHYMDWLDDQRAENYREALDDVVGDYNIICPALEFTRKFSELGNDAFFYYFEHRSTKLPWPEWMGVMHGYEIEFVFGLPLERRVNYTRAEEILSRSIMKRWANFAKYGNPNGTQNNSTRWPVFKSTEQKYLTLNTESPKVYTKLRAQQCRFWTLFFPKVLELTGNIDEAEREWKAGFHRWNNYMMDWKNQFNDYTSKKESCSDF
Acetylcholinesterase, sequence (O42275 whole entry): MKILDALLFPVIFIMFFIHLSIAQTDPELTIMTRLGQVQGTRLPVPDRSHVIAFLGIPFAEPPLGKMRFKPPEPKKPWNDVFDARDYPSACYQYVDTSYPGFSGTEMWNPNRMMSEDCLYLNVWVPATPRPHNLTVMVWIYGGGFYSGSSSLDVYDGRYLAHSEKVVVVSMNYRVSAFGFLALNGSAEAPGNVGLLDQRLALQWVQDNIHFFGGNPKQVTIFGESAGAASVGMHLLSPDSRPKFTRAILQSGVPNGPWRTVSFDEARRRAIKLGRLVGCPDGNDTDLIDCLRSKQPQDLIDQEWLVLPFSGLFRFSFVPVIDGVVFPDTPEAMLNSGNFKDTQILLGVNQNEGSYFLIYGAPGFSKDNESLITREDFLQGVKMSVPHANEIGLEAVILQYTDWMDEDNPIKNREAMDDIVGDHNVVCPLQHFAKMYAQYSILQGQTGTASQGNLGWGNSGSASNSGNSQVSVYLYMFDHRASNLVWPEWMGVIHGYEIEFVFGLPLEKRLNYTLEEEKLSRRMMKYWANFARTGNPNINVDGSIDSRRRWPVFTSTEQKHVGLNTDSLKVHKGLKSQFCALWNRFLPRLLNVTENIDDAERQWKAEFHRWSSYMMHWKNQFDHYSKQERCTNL
Acetylcholinesterase (Electrophorus electricus), sequence (O42275 24-633 limits assumed): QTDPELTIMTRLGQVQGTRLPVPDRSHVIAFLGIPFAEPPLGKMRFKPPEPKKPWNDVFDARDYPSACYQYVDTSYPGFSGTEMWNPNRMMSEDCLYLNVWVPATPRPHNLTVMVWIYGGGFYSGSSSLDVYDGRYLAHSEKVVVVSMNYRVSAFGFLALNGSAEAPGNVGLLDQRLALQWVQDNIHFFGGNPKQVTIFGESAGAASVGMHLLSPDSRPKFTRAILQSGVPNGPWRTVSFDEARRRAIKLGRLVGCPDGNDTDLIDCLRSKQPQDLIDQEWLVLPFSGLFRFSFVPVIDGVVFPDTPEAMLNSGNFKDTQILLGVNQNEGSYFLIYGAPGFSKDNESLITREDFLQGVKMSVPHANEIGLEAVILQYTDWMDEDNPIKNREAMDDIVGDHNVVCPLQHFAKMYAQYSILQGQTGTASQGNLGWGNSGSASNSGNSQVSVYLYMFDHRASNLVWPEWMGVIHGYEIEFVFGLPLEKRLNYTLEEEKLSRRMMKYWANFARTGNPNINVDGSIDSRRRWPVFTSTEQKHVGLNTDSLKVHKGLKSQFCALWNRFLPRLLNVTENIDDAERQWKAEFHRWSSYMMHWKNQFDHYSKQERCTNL

Row | Structure (SMILES) | IC50 (Cholinesterase) | Ratio IC50 [1] | IC50 [2] | IC50 (Acetylcholinesterase) | IC50 (HepG2) | inhibition [3] | inhibition [4] | IC50 [5]
1 | CC(C)=CCOc1ccc2c(c1)OC(c1cccc(Cl)c1)CC2=O (centres undefined) | 3.59 µM | 2.39 | 6.3 µM | 1.5 µM | – | – | – | –
2 | CC(C)=CCOc1cc(O)c2c(c1)OC(c1ccc(C)cc1)CC2=O (centres undefined) | 6.54 µM | 6.54 | 4.36 µM | 1 µM | – | – | – | –
3 | COc1ccc(C2CC(=O)c3c(O)cc(OCC=C(C)C)cc3O2)c(OC)c1 (centres undefined) | 5.46 µM | 60.7 | 2.32 µM | 0.09 µM | > 100 µM | Active | Active | > 100 µM
4 | CC(C)=CCOc1cc(O)c2c(c1)OC(c1ccccc1Br)CC2=O (centres undefined) | 3.87 µM | 3.28 | 3.82 µM | 1.18 µM | – | – | – | –
5 | CC(C)=CCOc1ccc2c(c1)OC(c1ccccc1Br)CC2=O (centres undefined) | 5.02 µM | 2.49 | 3.18 µM | 2.02 µM | – | – | – | –
6 | CC(C)=CCOc1cc(O)c2c(c1)OC(c1ccc(C)cc1C)CC2=O (centres undefined) | 3.92 µM | 5.44 | 6.38 µM | 0.72 µM | – | – | – | –
7 | CC(C)=CCOc1ccc2c(c1)OC(c1cccc(Br)c1)CC2=O (centres undefined) | 4.5 µM | 2.45 | 5.28 µM | 1.84 µM | – | – | – | –
8 | CC(C)=CCOc1ccc2c(c1)OC(c1ccc(O)cc1)CC2=O (centres undefined) | 5.02 µM | 1.62 | 6.67 µM | 3.09 µM | – | – | – | –
9 | CC(C)=CCOc1cc(O)c2c(c1)OC(c1cccc(F)c1)CC2=O (centres undefined) | 5.09 µM | 5.53 | 7.24 µM | 0.92 µM | – | – | – | –
10 | CC(C)=CCOc1ccc2c(c1)OC(c1ccccc1Cl)CC2=O (centres undefined) | 5.37 µM | 1.69 | 8.02 µM | 3.17 µM | – | – | – | –
11 | CC(C)=CCOc1ccc2c(c1)OC(c1cccc(F)c1)CC2=O (centres undefined) | 4.02 µM | 2.72 | 4.28 µM | 1.48 µM | – | – | – | –
12 | CC(C)=CCOc1cc(O)c2c(c1)OC(c1ccc(F)cc1)CC2=O (centres undefined) | 6.84 µM | 28.5 | 6.06 µM | 0.24 µM | – | – | – | –
13 | CC(C)=CCOc1cc(O)c2c(c1)OC(c1cccc(Cl)c1)CC2=O (centres undefined) | 6.82 µM | 6.89 | 6.06 µM | 0.99 µM | – | – | – | –
14 | COc1ccc(C2CC(=O)c3ccc(OCC=C(C)C)cc3O2)c(OC)c1 (centres undefined) | 5.65 µM | 15.3 | 8.18 µM | 0.37 µM | – | – | – | –
15 | CC(C)=CCOc1cc(O)c2c(c1)OC(c1ccc(O)cc1)CC2=O (centres undefined) | 5.38 µM | 2.27 | 5.34 µM | 2.37 µM | – | – | – | –
16 | CC(C)=CCOc1ccc2c(c1)OC(c1ccc(F)cc1)CC2=O (centres undefined) | 2.58 µM | 4.69 | 7.32 µM | 0.55 µM | – | – | – | –
17 | CC(C)=CCOc1ccc2c(c1)OC(c1ccccc1F)CC2=O (centres undefined) | 5.47 µM | 2.85 | 6.36 µM | 1.92 µM | – | – | – | –

Row | Structure (SMILES) | IC50 (Cholinesterase) | Ratio IC50 [1] | IC50 [2] | IC50 (Acetylcholinesterase) | IC50 (HepG2) | inhibition [3] | inhibition [4] | IC50 [5]
18 | CC(C)=CCOc1cc(O)c2c(c1)OC(c1ccccc1Cl)CC2=O (centres undefined) | 7.54 µM | 3.52 | 4.27 µM | 2.14 µM | – | – | – | –
19 | CC(C)=CCOc1ccc2c(c1)OC(c1ccc(C)cc1)CC2=O (centres undefined) | 4.09 µM | 3.65 | 4.44 µM | 1.12 µM | – | – | – | –
20 | CC(C)=CCOc1ccc2c(c1)OC(c1ccc(Cl)cc1Cl)CC2=O (centres undefined) | 3.47 µM | 2.61 | 5.26 µM | 1.33 µM | – | – | – | –
21 | CC(C)=CCOc1cc(O)c2c(c1)OC(c1ccc(Br)cc1)CC2=O (centres undefined) | 6.04 µM | 54.9 | 2.77 µM | 0.11 µM | > 80 µM | – | – | > 100 µM
22 | CC(C)=CCOc1ccc2c(c1)OC(c1ccc(Cl)cc1)CC2=O (centres undefined) | 4.22 µM | 1.99 | 6.97 µM | 2.12 µM | – | – | – | –
23 | CC(C)=CCOc1ccc2c(c1)OC(c1ccc(Br)cc1)CC2=O (centres undefined) | 3.87 µM | 5.03 | 8.12 µM | 0.77 µM | – | – | – | –
24 | CC(C)=CCOc1cc(O)c2c(c1)OC(c1ccccc1)CC2=O (centres undefined) | 6.54 µM | 2.15 | 7.32 µM | 3.04 µM | – | – | – | –
25 | CC(C)=CCOc1cc(O)c2c(c1)OC(c1ccc(Cl)cc1)CC2=O (centres undefined) | 7.07 µM | 6.04 | 7.02 µM | 1.17 µM | – | – | – | –
26 | CC(C)=CCOc1cc(O)c2c(c1)OC(c1ccccc1F)CC2=O (centres undefined) | 7.37 µM | 5.8 | 5.3 µM | 1.27 µM | – | – | – | –
27 | CC(C)=CCOc1cc(O)c2c(c1)OC(c1ccc(Cl)cc1Cl)CC2=O (centres undefined) | 6.94 µM | 6.67 | 3.34 µM | 1.04 µM | – | – | – | –
28 | O=C1C[C@@H](c2ccc(O)cc2)Oc2cc(O)ccc21 [LIQUIRTIGENIN] | 14 µM | 1.55 | 8.96 µM | 9.1 µM | – | – | – | –
29 | CC(C)=CCOc1ccc2c(c1)OC(c1ccc(C)cc1C)CC2=O (centres undefined) | 3.42 µM | 3.64 | 8.26 µM | 0.94 µM | – | – | – | –
30 | COc1ccc(C2CC(=O)c3c(O)cc(OCC=C(C)C)cc3O2)cc1 (centres undefined) | 5.77 µM | 21.4 | 5.08 µM | 0.27 µM | – | – | – | –
31 | COc1ccc(C2CC(=O)c3ccc(OCC=C(C)C)cc3O2)cc1 (centres undefined) | 4.54 µM | 7.21 | 10.2 µM | 0.63 µM | – | – | – | –
32 | CC(C)=CCOc1ccc2c(c1)OC(c1ccccc1)CC2=O (centres undefined) | 9.54 µM | 1.79 | 6.07 µM | 5.32 µM | – | – | – | –
33 | CC(C)=CCOc1cc(O)c2c(c1)OC(c1cccc(Br)c1)CC2=O (centres undefined) | 5.22 µM | 6.37 | 4.04 µM | 0.82 µM | – | – | – | –
34 | Cc1c(C)c2c(c(C)c1O)CCC(C)(C(=O)O)O2 (centres undefined) [TROLOX] | – | – | 6.12 µM | – | – | – | – | –
